Measurements: patent US9394314B2, “8′-hydroxy-dihydroergotamine compounds and compositions” (priority 2012, dated 2016)

Key:
[1] = cited from earlier work
[2] = subcutaneously, concentration 1.5 mM; cited from earlier work
human D2L receptor = biological target: T1, human D2L receptor (Homo sapiens, UniProt P14416); experiment: Radioligand binding assay (competition and kinetics), CHO-K1 membranes
T1 construct: purchased Euroscreen; host or cells: CHO-K1
Description: (§1) For kinetics of radioligand competitive binding, serial dilutions were performed from master solution in 100% DMSO to obtain intermediate concentrations 200-fold higher than the concentrations to be tested. Each test sample was diluted 100-fold in the assay buffer and dispensed into the test plate.
D2L Radioligand Binding Assay
Assay buffer: 25 mM HEPES (pH 7.4), 5 mM MgCl2, 1 mM CaCl2, BSA protease free 0.5%
Washing buffer: 25 mM HEPES (pH 7.4), 5 mM MgCl2, 1 mM CaCl2
Membrane: recombinant CHO-K1-D2L membranes thawed on ice and diluted in assay buffer (2 μg/well)
Ligand: Risperidone (Tocris Bioscience, 2865) […]
(§2) Determination of IC50 and Ki constant for each test compound. […] After washing the filters 5 times with 0.5 mL of ice-cold washing buffer, 50 μL of Microscint 20 (Packard) were added to the filters and the plates were incubated 15 min on an orbital shaker and then counted for 1 min/well. […]
as §2, with “kon” for “IC50”, “koff constants” for “Ki constant”, “compound. Each compound was first assessed in a pilot experiment to evaluate its effect on the kinetic binding of each receptor-radioligand pair.” for “compound.”

human 5-HT1D receptor = biological target: T2, human 5-HT1D receptor (Homo sapiens, UniProt P28221); experiment: as above
T2 construct: purchased Euroscreen; host or cells: CHO-K1
Description: as §1
5-HT1D Radioligand Binding Assay
Assay buffer: 50 mM Tris (pH 7.4), 4 mM CaCl2, 0.1% ascorbic acid
(§3) Washing buffer: 50 mM Tris (pH 7.4)
Membrane: recombinant CHO-K1-5-HT1D membranes thawed on ice and diluted in assay buffer (10 μg/well)
Ligand: 5-HT (Sigma, H-9523)
as §2
(§4) Determination of kon and koff constants for each test compound. Each compound was first assessed in a pilot experiment to evaluate its effect on the kinetic binding of each receptor-radioligand pair. […] After washing the filters 5 times with 0.5 mL of ice-cold washing buffer, 50 μL of Microscint 20 (Packard) were added to the filters and the plates were incubated 15 min on an orbital shaker and then counted for 1 min/well.

human 5-HT1B receptor = biological target: T3, human 5-HT1B receptor (Homo sapiens, UniProt P28222); experiment: as above
T3 construct: purchased Euroscreen; host or cells: CHO-K1
Description: as §1
5-HT1B Radioligand Binding Assay
as §3
Ligand: 5-CT (Tocris, 0458)
Determination of IC50 and Ki constant for each test compound. […] The samples were incubated for 60 min (or 4 hours for a second experiment on 5-HT2B receptors) at a temperature optimized for each receptor and then filtered over a filter plate. After washing the filters 5 times with 0.5 mL of ice-cold washing buffer, 50 μL of Microscint 20 (Packard) were added to the filters and the plates were incubated 15 min on an orbital shaker and then counted for 1 min/well. The test compounds were tested in duplicate at the nanomolar concentrations reported below in Table 5.
as §4

T1 sequence (P14416 whole entry): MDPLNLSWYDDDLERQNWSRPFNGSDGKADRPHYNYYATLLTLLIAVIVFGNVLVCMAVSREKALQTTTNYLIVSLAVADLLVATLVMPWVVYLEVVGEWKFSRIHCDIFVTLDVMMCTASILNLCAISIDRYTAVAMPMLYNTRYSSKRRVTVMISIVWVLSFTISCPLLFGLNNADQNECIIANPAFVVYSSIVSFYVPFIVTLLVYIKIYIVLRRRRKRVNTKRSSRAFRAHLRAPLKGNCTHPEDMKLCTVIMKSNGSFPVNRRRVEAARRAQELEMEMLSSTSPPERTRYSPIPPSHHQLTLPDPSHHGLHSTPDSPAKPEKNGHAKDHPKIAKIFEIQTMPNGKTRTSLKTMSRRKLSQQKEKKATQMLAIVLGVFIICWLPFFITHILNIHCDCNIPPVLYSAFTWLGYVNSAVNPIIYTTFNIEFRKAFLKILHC
T2 sequence (P28221 whole entry): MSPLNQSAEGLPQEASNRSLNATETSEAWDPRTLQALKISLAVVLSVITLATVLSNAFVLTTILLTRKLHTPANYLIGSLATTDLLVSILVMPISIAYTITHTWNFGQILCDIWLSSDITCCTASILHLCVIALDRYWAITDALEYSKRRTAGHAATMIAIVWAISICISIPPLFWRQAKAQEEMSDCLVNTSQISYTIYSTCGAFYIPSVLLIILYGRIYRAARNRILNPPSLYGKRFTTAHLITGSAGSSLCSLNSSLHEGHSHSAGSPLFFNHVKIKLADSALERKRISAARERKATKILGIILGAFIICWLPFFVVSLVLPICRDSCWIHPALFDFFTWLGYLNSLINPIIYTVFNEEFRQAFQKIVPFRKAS
T3 sequence (P28222 whole entry): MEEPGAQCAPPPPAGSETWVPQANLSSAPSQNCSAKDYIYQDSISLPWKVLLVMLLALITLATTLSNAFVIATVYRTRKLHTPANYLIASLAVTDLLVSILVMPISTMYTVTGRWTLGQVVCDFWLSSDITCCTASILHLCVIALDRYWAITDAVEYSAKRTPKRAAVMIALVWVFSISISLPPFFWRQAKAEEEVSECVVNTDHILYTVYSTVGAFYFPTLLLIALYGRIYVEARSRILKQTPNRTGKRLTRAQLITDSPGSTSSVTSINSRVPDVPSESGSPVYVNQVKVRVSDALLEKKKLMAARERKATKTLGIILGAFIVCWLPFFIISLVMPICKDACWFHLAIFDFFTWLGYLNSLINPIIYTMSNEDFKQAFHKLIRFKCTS

Compound | fraction of administered dose extracted in the urine ([1]; IM administered dose) | total DHE metabolites as share of plasma AUC ([1]; nasal administration of DHE) | treated patients with nausea [2] | Avg Koff (human D2L receptor) | concentration of 8′-OH DHE metabolite relative to parent DHE ([1]; previous studies) | Avg Koff (human 5-HT1D receptor) | Avg Koff (human 5-HT1B receptor)
CN1C[C@H](C(=O)N[C@]2(C)O[C@@]3(O)[C@@H]4CCCN4C(=O)[C@H](Cc4ccccc4)N3C2=O)C[C@@H]2c3cccc4[nH]cc(c34)C[C@H]21 [DHE, Dihydroergotamine] | 6-7% | 20-30% | ~16% | – | – | – | –
CN1C[C@H](C(=O)N[C@]2(C)O[C@@]3(O)[C@@H]4CCC(O)N4C(=O)[C@H](Cc4ccccc4)N3C2=O)C[C@@H]2c3cccc4[nH]cc(c34)C[C@H]21 (stereo partly shown) [8′-OH DHE, 8′-Hydroxy-Dihydroergotamine] | – | – | – | 0.00127 s⁻¹ | 5 to 7 times | 0.000175 s⁻¹ | 9.83e-05 s⁻¹
